This note sets out measurements from patent US9561289B2, “Peptides for inhibiting tumor growth” (OSPEDALE SAN RAFFAELE SRL, priority 2012, dated 2017).

Marks after values point to notes of the source that are not given here. Where a SMILES comes first, the peptide text is derived from it. Bridges are numbered along the chain shown (N, C = ends).

One assay deals with WEHI-164 fibrosarcoma. In words: Tumor growth in WEHI-164 fibrosarcoma-bearing mice. The assay is classed as in vivo. The note with it: WEHI-164 model, i.p., biweekly, 0.032 to 20 μg.
Assay [1] relates to EA.hy926 endothelial cells. In words: Endothelial cell adhesion to vitronectin-coated plates. The assay is classed as cell-based, human. Particulars: EA.hy926, substance added to supernatant. The procedure:
Endothelial cell (EA.hy926) adhesion to microtiter plates coated with human vitronectin was carried out as described ([25]). IsoDGR#1 and isoDGR#3 were added to the supernatant during cell adhesion. […] Mean±S.E (n=3).
Cell adhesion was quantified by spectrophotometric measurement (A570 nm).

The target of a further assay is T1, α5β1 (Homo sapiens, UniProt P05556+P08648).
T1 construct: purchased Immunological Sciences (Rome, Italy)
In words: Competitive integrin binding assay (isoDGR/STV-HRP) on α5β1-coated plates. The note with it: number in parenthesis. The protocol: (§1) A conjugate consisting of biotinylated acetyl-Ciso[…] (SEQ ID NO:36) peptide complexed with streptavidin-peroxidase conjugate (isoDGR/STV-HRP) was first prepared as described previously. […] Each mixture was then added to microtiter plates coated with integrins (αvβ3, αvβ5, αvβ6, […], or α5β1) and incubated for 2 h at room temperature. After washing, each well was incubated with 70 μl of chromogenic solution (o-phenylenediamine dihydrochloride) for 20 min, at room temperature. The chromogenic reaction was stopped by adding an equal volume of 1 N sulfuric acid. The absorbance at 490 nm was then measured using a microtiter plate reader.
(§2) The binding affinity and selectivity of each peptide for different integrins were then analyzed by competitive binding assay, using αvβ3-, αvβ5-, αvβ6-, αvβ8- and α5β1-coated plates and isoDGR/STV-HRP, an ac-isoDGR-2C/peroxidase complex, as competitor.

The target in another assay is T2, αvβ3 (Homo sapiens, UniProt P05106+P06756).
T2 construct: purchased Immunological Sciences (Rome, Italy)
Description: Competitive integrin binding assay (isoDGR/STV-HRP) on αvβ3-coated plates. Particulars: number in parenthesis. The protocol: as §1, §2

For a further assay, the target named is T3, αvβ5 (Homo sapiens, UniProt P06756+P18084).
T3 construct: purchased Immunological Sciences (Rome, Italy)
Description: Competitive integrin binding assay (isoDGR/STV-HRP) on αvβ5-coated plates. Particulars: number in parenthesis. The protocol:
as §1, §2

For the next assay, the target named is T4, αvβ6 (Homo sapiens, UniProt P06756+P18564).
T4 construct: purchased R&D System (Minneapolis, Minn.)
Description: Competitive integrin binding assay (isoDGR/STV-HRP) on αvβ6-coated plates. Particulars: number in parenthesis. The protocol:
as §1, §2

The target of another assay is T5, αvβ8 (Homo sapiens, UniProt P06756+P26012).
T5 construct: purchased R&D System (Minneapolis, Minn.)
In words: Competitive integrin binding assay (isoDGR/STV-HRP) on αvβ8-coated plates. Particulars: number in parenthesis. The procedure: as §1, §2

Assay [2] has as its system CD13-positive (HT-1080 and HUVECs) cells. Description: Binding of NGR peptide/Qdot to CD13-positive cells (fluorescence microscopy). It counts as cell-based, human. Particulars: 2 h at 37° C. The protocol: (§3) (B) Binding of head-to-tail cyclized NGR peptides and disulphide constrained NGR peptide (ac-NGR-2C-TNF1-11, corresponding to acetylated-[…]) (SEQ ID NO:33) conjugated to fluorescent nanoparticles (Qdot) to HT-1080, human umbilical vein cells (HUVECs), and MCF-7 cells. NGR#/Qdots were prepared using the sulfo-SMCC linker (black, bars), whereas ac-NGR-2C-TNF1-11/Qdot were prepared using the BS3 linker (white, bars). Linker-Qdot, i.e. lacking the peptide, are indicated as None. Quantification of staining intensity was performed by using the Photoshop software. Six images were analyzed for each condition. Representative images are shown. Magnification, ×400; scale bar, 20 μm; red, Qdot; blue, nuclear staining with DAPI.
(§4) The binding of NGR-peptide/Qdot conjugates to HT-1080, HUVECs and MCF-7, was analyzed as follows: the cells were grown in chamber slides (3-4×10^4 cell/well, plated 48 h before the experiment). After washing with DMEM containing 1% fetal bovine serum (binding buffer), each NGR-peptide/Qdot conjugate (3-10 nM, in binding buffer) was added to the cells and left to incubate for 2 h at 37° C. in 5% CO2. […] The cells were then analyzed using an Axioscop 40 FL microscope (Carl Zeiss, Germany) equipped with AxioCam MRc5 digital camera and Axiovison software (Carl Zeiss).

In assay [3] the test system is CD13-negative MCF-7 cells. In words: Binding of NGR peptide/Qdot to CD13-negative cells (fluorescence microscopy). It counts as cell-based, human. The protocol: as §3, §4

In the case of `CC(C)[C@H]1C(=O)N[C@@H](CCCNC(=N)N)C(=O)NCC(=O)N[C@@H](CC(=O)O)C(=O)N[C@H](Cc2ccccc2)C(=O)N1C` [Cilengitide, cyclo(arginylglycyl-aspartyl-D-phenylalanyl-N-methyl-valyl)], the tumor growth result in the assay with WEHI-164 fibrosarcoma is recorded as “can delay the growth”.
In the case of `N=C(N)NCCC[C@@H]1NC(=O)CNC(=O)C[C@@H](C(=O)O)NC(=O)CNC(=O)[C@H](CS)NC(=O)CNC1=O` [isoDGR#1, c(CGisoDGRG)] (GRGCGD-OH; lactam N-6), in assay [1], the “inhibition of endothelial cell adhesion to vitronectin” value was “could efficiently inhibit endothelial cell adhesion”. On α5β1, the “ratio of integrin Ki/αvβ3 Ki (α5β1)” value is “(3)”. The “ratio of integrin Ki/αvβ3 Ki (αvβ3)” value on αvβ3 is reported as “(1)^c”. Besides, the “ratio of integrin Ki/αvβ3 Ki (αvβ5)” value at αvβ5 is “(2)”. In addition, the “ratio of integrin Ki/αvβ3 Ki (αvβ6)” value on αvβ6 is on record as “(14)”.
As to `N=C(N)NCCC[C@@H]1NC(=O)CNC(=O)C[C@@H](C(=O)O)NC(=O)[C@H](CS)NC(=O)CNC(=O)CNC1=O` [isoDGR#3, c(CisoDGRGG)] (GRGGCD-OH; lactam N-6), the “inhibition of endothelial cell adhesion to vitronectin” value in assay [1] was “could efficiently inhibit endothelial cell adhesion”. Further, the “ratio of integrin Ki/αvβ3 Ki (αvβ8)” value on αvβ8 is recorded as “(1.2)”. Moreover, the “ratio of integrin Ki/αvβ3 Ki (α5β1)” value on α5β1 is “(0.5)”. Further, at αvβ3, the “ratio of integrin Ki/αvβ3 Ki (αvβ3)” value was “(1)”. For the same molecule, on αvβ5, the “ratio of integrin Ki/αvβ3 Ki (αvβ5)” value is “(1)”. Further, on αvβ6, the “ratio of integrin Ki/αvβ3 Ki (αvβ6)” value is reported as “(1.3)”.
For “NGR#3-Qdot: NGR#3 coupled to sulfo-SMCC-activated Qdot fluorescent nanoparticles (cyclo(CNGRGG); not fully specified (residue 1); also: linker joined to Qdot605 nanoparticle)”, in [2], the “binding to CD13-positive cells” value is listed as “could bind CD13-positive cells”. In addition, the “binding to CD13-negative cells” value in assay [3] was “failed to bind”.
